# Measurements as given in patent publication US20240409902A1, “SYSTEMS AND METHODS FOR CULTURING PODOCYTES AND USES THEREOF” (Washington University, priority 2021, published 2024).
# “Also recorded” adds a separate entry of the source.
# Key:
# [1] = tested on: primary mouse podocytes; assay: Cell relaxation and strain mapping with microbead-embedded hydrogels after CytoD; assay type: cell-based
# Description: Fluorescent microbeads with a diameter of 0.2 μm (Invitrogen, F8801) were added to the hydrogel's pre-cross-linking solution with a 1:60 dilution ratio before the cross-linking step. After solidification, hydrogels were used for the strain mapping as reported earlier. Briefly, primary mouse podocytes were isolated as described above, seeded on the hydrogels, and allowed to spread for 24 hours. Next, the cells were transferred to a live-imaging chamber before adding CytoD to the culture medium (CytoD, Sigma-Aldrich, 22144-77-0; final concentration, 20 μM). In the final step, the culture medium was changed to 10% SDS to remove the attached cells completely. Cell relaxation and microbead movements were recorded immediately after adding CytoD or 10% SDS, and the strain field was calculated using a strain mapping algorithm that was developed in our previous study.
# (§1) For counting and scoring cell phenotypes, imaged podocytes were divided into several categories, including (i) cells with SLSs centrally and in the periphery, (ii) cells with SLSs only in the periphery, (iii) cells with loose striated patterns of synaptopodin and myosin IIA instead of a mat of SLSs (i.e., widely spaced SLSs), and, lastly, (iv) cells without SLSs. For measuring cell length, the longest axis of the cell was determined (mostly along the micropattern direction), and the length was determined through ImageJ (v1.53e with Bio-Formats plugin).
# [2] = tested on: podocytes from isolated mouse glomeruli; assay: Glomerular culture and podocyte spreading on ECM-micropatterned hydrogels; assay type: cell-based; conditions: glomeruli cultured 2 days on micropatterned PAAm hydrogels
# From the text: To test which micropatterned ECM proteins best support podocytes, mouse glomeruli were isolated and cultured on hydrogels coated with Lam-521, collagen IV, or fibronectin. […] Furthermore, the PAAm hydrogel was coated with Lam-521 and micropatterned protein-free patches onto the substrate using a PDMS stamp that removed Lam-521, leaving an inverse of the previous Lam-521 micropatterns interdigitated with microscale patches of exposed PAAm.
# Next, the PDMS stamp was cleaned by sonication (Branson) for 20 min and washed in 50% ethanol solution before drying under nitrogen flow followed by plasma cleaning for 2 min (Harrick Plasma). Last, the PDMS stamp micropattern areas were soaked in different ECM solutions [laminin 521 (50 μg/ml; Biolamina, LN521-05), fibronectin (Corning, 356008), or collagen IV (Corning, 354233) in phosphate-buffered saline (PBS)] and left to set for 1 hour at room temperature.
# After air-drying the ECM proteins atop the PDMS stamp, the excess solution was removed, and the stamp was dried further using nitrogen flow. The freshly prepared hydroxyl-PAAm hydrogel was also dried out by treatment with nitrogen flow. […]
# [3] = tested on: primary podocytes; assay: Myosin II inhibition with blebbistatin: sarcomere-like structures (SLSs) in primary podocytes, immunostained for synaptopodin and myosin IIA; assay type: cell-based, mouse
# Description: After spreading, cultured podocytes on the hydrogels or glass were fixed in 4% paraformaldehyde (Electron Microscopy Sciences, 15712) for 10 min at room temperature followed by washing with 1×PBS, three times for 6 min each, and then permeabilized using 0.05% Triton X-100 for 10 min at room temperature. Next, samples were blocked using 2% bovine serum albumin (Sigma-Aldrich, A7906) for 30 min at room temperature before applying the primary antibodies overnight at 4° C. Next, samples were washed with 1×PBS, three times for 6 min each before incubating them with the secondary antibodies in PBS for 1 hour at room temperature. Last, the samples were washed in 1×PBS, three times for 6 min, and prepared for mounting using Invitrogen Slow Fade mounting medium (Invitrogen, S36917). The cover glass holding the sample (hydrogel and cells) was bonded to a second cover glass using nail polish. The primary antibodies used were myosin IIA (BioLegend, 909801, rabbit anti-mouse), myosin IIA (Abnova, clone 3C7, mouse anti-human, NH2-terminus), synaptopodin (Synaptic Systems, 163004, guinea pig anti-mouse), laminin α5 [clone 4C7, mouse anti-human], fibronectin (Sigma-Aldrich, F3648, rabbit anti-human), collagen IV (SouthernBiotech, 1340-01, goat anti-human), nephrin (R&D Systems, AF3159, goat anti-mouse), and α-SMA (Invitrogen, 14-9760-82). Alexa Fluor 555 phalloidin (Thermo Fisher Scientific, A34055) was used for actin staining. For mouse myosin antibodies (clone 3C7), samples were antigen retrieved in TE (Tris-EDTA) buffer (pH 9.0) at 65° C. for 4 hours before the permeabilization step.
# Blebbistatin (EMD Millipore, 203389-5) was used to inhibit the function of myosin II in the podocytes. […] After 2 hours of treatment, the samples were washed with PBS and immediately fixed and stained as mentioned above.
# Sarcomeric structures were measured using ImageJ (v1.53e with Bio-Formats plugin). Briefly, fluorescence intensity maps were acquired by plotting the intensity along a line drawn perpendicular to the sarcomere structure. For the histogram, the spacing of each sarcomere is calculated by recording the peak location in the intensity map, and n for each group represents the total sarcomere number calculated in that group. For averaged sarcomeric spacing, the mean values were calculated for each intensity map (i.e., each stress fiber that is no less than 6 μm long), while n for each group represents the number of stress fibers analyzed in that group.
# as §1
molecule,measurement,setting,value
"C=C1[C@@H](C)[C@H]2[C@H](Cc3ccccc3)NC(=O)[C@]23[C@H](OC(C)=O)/C=C/[C@@](C)(O)C(=O)[C@@H](C)C/C=C/[C@H]3[C@@H]1O [CytoD, cytochalasin D]",cell length before and after CytoD,"[1]; 0.9 kPa substrates, 15 min CytoD",most cells elongated along their axes; also recorded: increases in cell length associated with 15 min of CytoD treatment were statistically significant
same,cell length before and after CytoD,"[1]; 6 kPa substrates, CytoD","Less, but still significant cell relaxation"
same,substrate strains associated with treatment,"[1]; 6 kPa substrates, CytoD compared with subsequent SDS treatment",much larger than those associated with subsequent SDS treatment
same,cell relaxation after actin disruption,"[1]; reseeded primary podocytes, CytoD 20 μM, video recording",significant cell relaxation
human laminin α5β2γ1 trimer [Lam-521],podocyte population of micropatterns,[2],podocytes populated micropatterns coated with Lam-521
"Cc1ccc2c(c1)C(=O)C1(O)CCN(c3ccccc3)C1=N2 (centres unmarked) [blebbistatin, Blebbistatin]",SLS formation,"[3]; 10 nM blebbistatin, 0.2- or 0.9-kPa hydrogels (FIG. 4F)",SLSs failed to form; also recorded: caused the loss of SLSs with a lower concentration of blebbistatin
same,SLS formation and sarcomeric spacing,"[3]; 10 nM blebbistatin, 6.0-kPa hydrogels or glass substrates (FIGS. 4F and G), listed as Blebb",myosin inhibition led to wider sarcomeric spacing
same,effect on SLSs,[3]; 2 μM blebbistatin (milder myosin inhibition),insufficient to disrupt the SLSs at the cell periphery but sufficient to disrupt those in the centers of the cells
same,effect on SLSs,"[3]; 10 μM blebbistatin, 2 hours, 6.0-kPa PAAm hydrogels and cover glass with Lam-521",caused aggregation of synaptopodin in the center of the cells and increased sarcomeric spacing in SLSs that persisted at the cell periphery
same,effect on SLSs,"[3]; 100 μM blebbistatin, 2 hours, 6.0-kPa PAAm hydrogels and cover glass with Lam-521",nearly eliminated SLSs
same,"disruption or loss of SLSs, concentration not given",[3]; podocytes on glass or patterned hydrogels (FIGS. 4D and E),"disrupted the sarcomeric structures of SLSs in a way that depended on the dose, substrate stiffness, and position; also recorded: caused a marked loss of SLSs"
